Where a name gives a salt, the structure may show the parent alone.
Tests used:
human GPR4 = biological target: T1, human GPR4 (Homo sapiens, UniProt P46093); test: GPR4 antagonism, luciferase reporter assay in human GPR4 assay cells; type: cell-based; details: 1 μmol/L test compound, 10 nmol/L 17β-estradiol, 6 hours, firefly luciferase reporter; for inhibition at 1 µM: read-out: Inhibition rate (%)
T1 construct: expressed in transfected cells; expression induced by 17β-estradiol
Experimental: Assay cells for human GPR4 were constructed according to the method descried in WO03/087366. By using the assay cells, the constitutive activity of human GPR4 can be detected by activity of a reporter (firefly luciferase).
Plasmid pAGal9-GPR4 for inducible expression of human GPR4 (2 μg: WO03/087366) and reporter plasmid pACREpluc (2 μg; WO03/087366) were co-transferred into 6×10^6 cells of KJMGER8 (WO03/087366) by electroporation. The resultant transformant was suspended in 8 mL of a RPMI1640-ITPSG medium [RPMI medium (Nissui Pharmaceutical Co., Ltd.) containing 6 mmol/L of L-glutamine (Invitrogen Corp.), 100 units/ml of penicillin (Invitrogen Corp.), 100 μg/ml of streptomycin (Invitrogen Corp.), 10 mmol/L of N-2-hydroxyethylpiperazine-N′-2-ethanesulfonic acid (HEPES) (Nacalai Tesque Inc.), 3 μg/ml of insulin (Sigma Co. Ltd.), 5 μg/ml of transferrin (Sigma Co. Ltd.), 5 mmol/L of sodium pyruvate (Wako Pure Chemical Industries, Ltd.), 125 nmol/L of selenious acid (Nacalai Tesque Inc.), and 1 mg/ml of galactose (Nacalai Tesque Inc.)], followed by culture in a CO^2 incubator at 37° C. for 24 hours. After the culture, blasticidin S (Funakoshi Co., Ltd., 2.0 μg/ml), hygromycin B (Wako Pure Chemical Industries, Ltd., 300 μg/ml), and geneticin (Nacalai Tesque Inc., 500 μg/ml) were added to the culture solution, followed by further culture for 14 days to prepare a stable transformant (referred to as “GPR4 assay cells”). The transformant was subcultured in a RPMI1640-ITPSG medium containing blastocidin S (Funakoshi Co., Ltd., 2.0 μg/ml), hygromycin B (manufactured by Wako Pure Chemical Industries, Ltd., 300 μg/ml), and geneticin (Nacalai Tesque Inc., 500 μg/ml).
Similarly, control plasmid pAGal9-nd (2 μg; WO03/087366) and reporter plasmid pACREpluc (2 μg; WO03/087366) were co-transferred in KJMGER8 to prepare a stable transformant (referred to as “control cells”).
The resulting human GPR4 assay cells (expressing GPR4 by stimuli of 17β-estradiol) were seeded onto a white plate at a concentration of 10^5 cells per well. Then, 17β-estradiol (Sigma Co. Ltd.), which was diluted with a medium so that the concentration in the reaction solution was 10 nmol/L, and 1 μmol/L of test compound were added to each well, followed by reaction in a 5% CO2 incubator at 37° C. for 6 hours. Then, a Steady Glo Luciferase Assay System (Promega Co., Ltd.) solution was added to terminate the reaction, and the quantity of light emitted per second was measured by a TOP count (Packard, Meriden, Conn., USA).
The activity (GPR4 antagonism) of the test compound was shown by an inhibition rate calculated on the basis of counts (counts per second) in the presence or absence of 17β-estradiol according to the following equation:
[formula] wherein A, B, and C represent the following values: […]
A: counts when 17β-estradiol and test compound were added
B: counts when neither 17β-estradiol nor test compound was added
C: counts when only 17β-estradiol was added

[1] = test system: LPC-induced neutrophil infiltration into airway; test: Inhibitory activity on LPC-induced neutrophil infiltration into airway (Test Example 2); type: in vivo; details: 100 mg/kg orally 1 hour before intratracheal LPC; BALF 6 hours after LPC; male BALB/c mice
Experimental: male BALB/c mice of 7-week old were intratracheally administered with 0.1 ml of a 1 mg/mL LPC solution prepared by dissolving in a 0.1% aqueous bovine serum albumin solution or a 0.1% aqueous bovine serum albumin solution (negative control group). Six hours after, bronchoalveola lavage was conducted, and the neutrophil infiltration in the recovered BALF was measured. In addition, Compound 53 or Compound 81 was suspended in a 0.5% aqueous methyl cellulose solution (solvent), and 100 mg/kg of the resultant suspension was orally administered to the mice 1 hour before LPC administration. In a […] control group, the solvent was administered instead of the test compound suspension. The infiltration of neutrophils was measured by measuring the number of cells in the recovered BALF with an automatic blood counter (Celltac α MEK-6158, Nihon Kohden Corporation, Tokyo) and then counting the number of neutrophils under a microscope using a smear prepared with Cytospin 3 (Shandon, Inc., Pittsburgh, Pa., USA). The number of neutrophils was calculated by multiplying the total number of cells by the percentage of the neutrophils. In this test, six mice per group were used for Compound 53, and six or seven mice per group were used for Compound 81.

[2] = test system: LPC-induced neutrophil infiltration into airway; test: Inhibitory activity on LPC-induced neutrophil infiltration into airway (Test Example 3); type: in vivo; details: 10 mg/kg orally 1 hour before intratracheal LPC; BALF 6 hours after LPC; male BALB/c mice
Experimental: Male BALB/c mice of 7-week old were intratracheally administered with 0.1 mL of a 1 mg/mL LPC solution prepared by dissolving in a 0.1% aqueous bovine serum albumin solution or a 0.1% aqueous bovine serum albumin solution (negative control group). Six hours after, bronchoalveola lavage was conducted, and the neutrophil infiltration in the recovered BALF was measured. In addition, Compound 118 or Compound 160 was suspended in a 0.5% aqueous methyl cellulose solution (solvent), and 10 mg/kg of the resultant suspension was orally administered to the mice 1 hour before LPC administration. In a […] control group, the solvent was administered instead of the test compound suspension. The infiltration of neutrophils was measured by measuring the number of cells in the recovered BALF with an automatic blood counter (Celltac α MEK-6158, Nihon Kohden Corporation, Tokyo) and then counting the number of neutrophils under a microscope using a smear prepared with Cytospin 3 (Shandon, Inc., Pittsburgh, Pa., USA). The number of neutrophils was calculated by multiplying the total number of cells by the percentage of the neutrophils. In this test, five mice per group were used for Compound 118, and six mice per group were used for Compound 160.

T1 sequence (P46093 whole entry): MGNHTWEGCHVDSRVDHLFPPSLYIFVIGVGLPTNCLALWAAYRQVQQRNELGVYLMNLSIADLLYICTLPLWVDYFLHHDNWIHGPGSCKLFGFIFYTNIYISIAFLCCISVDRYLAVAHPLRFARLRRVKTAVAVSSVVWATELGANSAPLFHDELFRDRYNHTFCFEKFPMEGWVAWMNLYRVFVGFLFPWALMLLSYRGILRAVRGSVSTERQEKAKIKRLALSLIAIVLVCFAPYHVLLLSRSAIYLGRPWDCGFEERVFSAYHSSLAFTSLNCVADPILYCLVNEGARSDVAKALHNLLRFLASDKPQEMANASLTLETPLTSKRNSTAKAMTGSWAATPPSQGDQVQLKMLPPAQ

CCc1nc2c(C)cc(C)nc2n1Cc1cnc(Nc2ccccc2)nc1 (as salt: hydrochloride)
melting point: 146 to 150 °C

CCc1nc2c(C)cc(C)nc2n1Cc1ccc(C(=O)c2ccccc2)cc1 [Compound 1, 4-(2-Ethyl-5,7-dimethylimidazo[4,5-b]pyridin-3-ylmethyl)benzophenone]
inhibition at 1 µM (human GPR4): 31%
melting point: 98 °C

CCc1nc2c(C)cc(C)nc2n1Cc1cccc(C(=NO)c2cccc(CN3CCCC3)c2)c1 [Compound 24, 1-(3-{[3-(2-Ethyl-5,7-dimethylimidazo[4,5-b]pyridin-3-ylmethyl)phenyl]hydroxyiminomethyl}benzyl)pyrrolidine]
inhibition at 1 µM (human GPR4): 34%
melting point: 231 to 236 °C

CCc1nc2c(C)cc(C)nc2n1Cc1ccc(NC(=O)c2cccc3ccccc23)cc1 [Compound 53]
Inhibition rate (%) (human GPR4): 74%
suppression of increase in the number of neutrophils in BALF as compared with the positive control group [1]: 47%

CCc1nc2c(C)cc(C)nc2n1Cc1ccc(NC(=O)OC(C)(C)C)cc1 [Compound 81]
Inhibition rate (%) (human GPR4): 77%
suppression of increase in the number of neutrophils in BALF as compared with the positive control group [1]: 42%

CCc1nc2c(C)cc(C)nc2n1Cc1ccc(Nc2ccccc2)cc1 [Compound 97, {4-(2-Ethyl-5,7-dimethylimidazo[4,5-b]pyridin-3-ylmethyl)phenyl}phenylamine]
inhibition at 1 µM (human GPR4): 45%

CCc1nc2c(C)cc(C)nc2n1Cc1cccc(Nc2ccccc2)c1 [Compound 98]
Inhibition rate (%) (human GPR4): 37%

CCc1nc2c(C)cc(C)nc2n1Cc1ccc(N[C@H]2CC[C@H](C(=O)NCCN3CCCC3)CC2)cc1 [Compound 118, trans-4-[4-(2-Ethyl-5,7-dimethyl-3H-imidazo[4,5-b]pyridin-3-ylmethyl)phenylamino]cyclohexanecarboxylic acid [2-(pyrrolidin-1-yl)ethyl]amide]
suppression of increase in the number of neutrophils in BALF as compared with the positive control group [2]: 60%
inhibition at 1 µM (human GPR4): 97%

CCc1nc2c(C)cc(C)nc2n1Cc1ccc(NCC2CCNCC2)cc1 [Compound 143, 4-[4-(2-Ethyl-5,7-dimethyl-3H-imidazo[4,5-b]pyridin-3-ylmethyl)phenylamino]methylpiperidine]
inhibition at 1 µM (human GPR4): 97%

Cc1cc(C)c2nc(C)n(Cc3ccc(NCC4CCN(C5CCOCC5)CC4)cc3)c2n1 [Compound 158, 4-[4-(2,5,7-Trimethyl-3H-imidazo[4,5-b]pyridin-3-ylmethyl)phenylamino]methyl-1-(4-tetrahydropyranyl)piperidine]
inhibition at 1 µM (human GPR4): 83%

Cc1cc(C)c2nc(C)n(Cc3ccc(NCC4CCN(C5CCN(C)CC5)CC4)cc3)c2n1 [Compound 160, 4-[4-(2,5,7-Trimethyl-3H-imidazo[4,5-b]pyridin-3-ylmethyl)phenylamino]methyl-1-(1-methylpiperidin-4-yl)piperidine]
suppression of increase in the number of neutrophils in BALF as compared with the positive control group [2]: 74%

From patent US8507484B2, “Preventive and/or therapeutic agent for neutrophilic inflammatory diseases” (Kyowa Hakko Kirin Co., Ltd., priority 2004, dated 2013)
